Reference: paper PMC12292233, “Effects of 2-Hydroxypropyl-β-Cyclodextrin on the Antioxidant Efficiency of Some Gallic Acid Derivatives in Soybean Oil-in-Water Emulsions” (Antioxidants, 2025)

Assays:
[1] = Distribution of antioxidants in intact soybean oil-in-water emulsions (16-ArN2+ chemical probe, pseudophase kinetic model); format: physicochemical; conditions: for PO^I, partition constant oil-interfacial / PW^I, partition constant water-interfacial / PW^I (app), partition constant water-interfacial: soybean oil-in-water emulsion, Tween 20, T = 25.0 °C; for order of percentage of AO in the interfacial region: at any particular ΦI value
Description: Emulsions contain three regions (oil, interface, and aqueous) with distinct solvent properties, and antioxidants are partitioned between them to different extents depending on their hydrophobicity (Figure 4). To prevent disturbance of the existing equilibria, the partition constants were evaluated in the intact emulsions using a well-established chemical method based on the reaction between a chemical probe, 4-hexadecylbenzenediazonium (16-ArN2^+), and the antioxidants. Kinetic results are then analyzed using a pseudophase kinetic model.
The method, along with its assumptions, advantages, and limitations, are described in detail elsewhere; only the relevant parts will be summarized here. 16-ArN2^+ is specifically designed as a water-insoluble chemical probe due to its long hydrophobic tail but with an ionic head group that makes it oil-insoluble. Thus, the reactive (-N2^+) group is located exclusively in the interfacial region. The rate of its reaction with the antioxidant depends on the effective concentration of the antioxidant in that region, which, in turn, depends on its distribution (Figure 4). The partition constants of the antioxidant between the water interfacial (PW^I) and the oil interfacial (PO^I) regions are described by Equations (10) and (11), respectively, where the magnitudes within parenthesis indicate the local concentrations given in moles per liter for a specific region.(10) PWI=(AOI)/(AOW) (11) POI=(AOI)/(AOO)
By employing the formalism of the pseudophase kinetic model, mathematical equations describing the relationships between the measured rate constant (kobs) for the reaction involving 16-ArN2^+ and the AOs and the partition constants can be derived, as was shown in our previous published work. Equation (12) was employed for the AOs, which are distributed between the three regions. Equation (12) can be simplified to Equation (13) for those antioxidants that only partition between the oil and the interfacial regions.(12) kobs=AOTkIPWIPOI/ΦOPWI+ΦIPWIPOI+ΦWPOI (13) kobs=kIAOTPOI/ΦIPOI+ΦO
With the partition constants known, the percentage of AOs at the interface can be determined, and the effective concentration of AOs in each region can be determined straightforwardly by employing Equations (14)–(16).(14) %AOI=100ΦIPWIPOI/ΦOPWI+ΦIPWIPOI+ΦWPOI (15) %AOI=100ΦIPOI/ΦIPOI+ΦO (16) (AOI)=%AOIAOT/ΦI
The application of the pseudophase kinetic model described above requires the determination of the variation in the observed rate constant (kobs) for the reaction between the chemical probe (16ArN2^+) and the antioxidants with the surfactant concentration. Because emulsions are opaque, a special protocol based on a derivatization method has been used to determine the kobs values. Briefly, unreacted arenediazonium ions were rapidly quenched by employing a suitable coupling agent (N-(1-naphthyl)ethylenediammine, NED), leading to the formation of a stable azo dye (Figure 5). The absorbance of the azo dye formed is proportional to the concentration of the unreacted 16ArN2^+ present in the reaction mixture. Further information regarding the experimental procedure is provided in a previous publication.
The kobs values were determined by fitting the absorbance–time data pairs to the pseudo-first-order kinetic equation (Equation (17), where At, A∞, and A0 stand for the absorbance values at time t, infinitive time, and zero time, respectively).(17) lnAt−A∞=lnA0−A∞−kobst
The distribution of the antioxidants in the intact emulsions was assessed through the analysis of the variation in the observed rate constants (kobs) for the reaction between the chemical probe 16-ArN2^+ and the AOs with the emulsifier volume fraction ΦI (Figure 9). Details of this method can be found elsewhere. For all AOs, kobs values decrease asymptotically 3–6 times upon increasing ΦI from ΦI = 0.005 to ΦI = 0.039. […]

[2] = Water solubility (statement); format: physicochemical
[3] = Kinetics of lipid oxidation (conjugated dienes, AOCS Ti 1a 64) in soybean oil-in-water emulsions; conditions: T = 60 °C; for relative efficiency order in inhibiting lipid peroxidation: 1:9 O/W emulsion, time to 0.5% increase in conjugated dienes; for relative efficiency order in inhibiting lipid peroxidation / effect of addition of HPCD on oxidative stability of the emulsion loaded with the antioxidant: ΦI = 0.008, [AO] = 0.1 mM
Description: The 1:9 oil-in-water emulsions were prepared by mixing 1 mL of stripped soybean oil and 9 mL of buffered aqueous solution (citric–citrate buffer 0.04 M pH 3.0) and different amounts of the surfactant Tween 20 (ΦI = Vsurfactant/Vemulsion = 0.005 − 0.04). Emulsions prepared without antioxidants were used as controls. In the others, the antioxidants GA, PG, OG, and LG were added to the aqueous (GA, PG) or oil (OG, LG) phases. The mixtures were stirred for at least 60 s at 20000 rpm at room temperature by employing a high-speed rotor (Polytron PT 1600 E, Kinematica, Fisher Scientific S.L., Madrid, Spain). All emulsions were prepared in triplicate and reported values are average.
The kinetics of the lipid peroxidation of soybean oil-in-water emulsions were monitored by determining the variation in the formation of conjugated dienes (CDs) with time according to the AOCS Official Method Ti 1a 64 in both the absence (control) and the presence of antioxidants (stoichiometric [AO] = 10^−4 M). Briefly, 1:9 O/W emulsions (ΦI = 0.008) were transferred to 25 mL screw-capped erlenmeyer flasks and were placed in an orbital shaker (Incubator Heidolph 1000 orbital stirrer, Heidolph Scientific Products GmbH, Schwabach, Germany) equipped with a Heidolph thermostat 1010 to the control temperature at 148 rpm and T = 60 °C (±1 °C) in the dark.
Aliquots (25 µL) of the emulsions were removed periodically and diluted to 10 mL with 2-propanol, and the absorbance was measured at λ = 233 nm. The percentage of conjugated dienes (%CD) was determined, as described in the literature, by employing Equation (18), where Coil stands for the concentration of soybean oil in the total volume of the emulsion (density for soybean oil = 0.93 g/mL; T = 25 °C).(18) %CD=1.0769A233nm/Coil(g/L)
The relative efficiency of the antioxidants under the different experimental conditions was quantified by measuring the time needed to increase the CD content by 0.5% (dashed line in Figure 7). We have previously shown that these values are equal to those for the induction period determined from the intersection point of the two linear segments defining the inhibited and uninhibited (propagation) steps [28].

[4] = parameters: method as in PMID 34037013, PMID 25180889, PMID 28248497; conditions: based on oxygen uptake; ratio oleic:linoleic:linolenic; ref [25],[26],[27]; cited from earlier work
[5] = DPPH radical scavenging activity of gallates in absence and presence of HPCD; format: biochemical; conditions: values given as 10^6 × EC50, T = 25 ± 1 °C, reaction time 3600 s, aqueous citric acid/citrate (0.04 M, pH 3)-methanol 50:50 v/v
Description: The radical scavenging activity of gallates was obtained by employing the free radical 2,2-diphenyl-1-pycrilhydrazyl DPPH^• and by following the method described by García-Perez et al.. The absorbance decrease in DPPH^• (λ= 515 nm) was monitored in the absence and the presence of CD for different concentrations of AOs ([AO] = […]) in an aqueous–methanolic solution (5:5, v/v) at T = 25 °C. […] The radical scavenging activity was measured in terms of the EC50 values, defined as the gallate concentration required to decrease DPPH^• radicals by half.

[6] = Partition constant in soybean oil-water binary mixtures; format: physicochemical; conditions: T = 25.0 °C
Description: Table 2 Partition constants values in soybean oil–water binary mixtures (PW^O) and in soybean oil-in-water emulsions (PW^I and PO^I) for gallates in the absence and the presence of HP-CD; T = 25.0 °C.

Row | Molecule | PO^I, partition constant oil-interfacial ([1]; [HPCD] = 0) | PO^I, partition constant oil-interfacial ([1]; [HPCD] = 0.013 M) | order of percentage of AO in the interfacial region [1] | relative efficiency order in inhibiting lipid peroxidation [3] | effect of addition of HPCD on oxidative stability of the emulsion loaded with the antioxidant ([3]; [HP-CD] = 0.013 M) | relative oxidation rate [4] | EC50 ([5]; 0 M HPCD) | EC50 ([5]; 1.1·10^−2 M HPCD) | other results
1 | CCCCCCCCCCCCOC(=O)c1cc(O)c(O)c(O)c1 [LG, lauryl gallate] | 27 ± 9 | 25 ± 2 | %BGI > %PGI > %LGI ≈ %OGI | LG ≈ OG < PG < < BG | negligible effect |  |  |  | solubility in water [2]: water insoluble
2 | CC/C=C\C/C=C\C/C=C\CCCCCCCC(=O)O [linolenic, linolenic acid] |  |  |  |  |  | ~100 |  |  | 
3 | CCCCCCCCOC(=O)c1cc(O)c(O)c(O)c1 [OG, octyl gallate] | 26 ± 7 | 25 ± 5 | %BGI > %PGI > %LGI ≈ %OGI | LG ≈ OG < PG < < BG | negligible effect |  | 9.02 ± 1.05 µM | 8.27 ± 0.2 µM | solubility in water [2]: water insoluble
4 | 2-Hydroxypropyl-β-cyclodextrin [HPCD] |  |  |  |  |  |  |  |  | effect on the kinetics of oxidation in absence of antioxidants ([3]; 1:9 soybean emulsions without antioxidant, [HP-CD] = 0.013 M): no effect
5 | CCCCOC(=O)c1cc(O)c(O)c(O)c1 [BG, butyl gallate] | 238 ± 8 | 174 ± 9 | %BGI > %PGI > %LGI ≈ %OGI | LG ≈ OG < PG < < BG | decreases the oxidative stability slightly |  | 6.02 ± 0.03 µM | 5.35 ± 0.04 µM | PW^I, partition constant water-interfacial ([1]; [HPCD] = 0): 772 ± 33; PW^I (app), partition constant water-interfacial ([1]; [HPCD] = 0.013 M): 565 ± 9; PW^O, partition constant [6]: 3.25 ± 0.03; relative efficiency order in inhibiting lipid peroxidation ([3]; listed as butyl gallate): highest antioxidant efficiency
6 | CCCCCCCC/C=C\CCCCCCCC(=O)O [oleic, oleic acid] |  |  |  |  |  | approximately 1 |  |  | 
7 | O=C(O)c1cc(O)c(O)c(O)c1 [GA, gallic acid] |  |  |  |  |  |  | 8.36 ± 0.28 µM | 7.84 ± 0.08 µM | 
8 | CCCCC/C=C\C/C=C\CCCCCCCC(=O)O [linoleic, linoleic acid] |  |  |  |  |  | ~70 |  |  | 
9 | CCCOC(=O)c1cc(O)c(O)c(O)c1 [PG, Propyl gallate] | 450 ± 26 | 371 ± 15 | %BGI > %PGI > %LGI ≈ %OGI | LG ≈ OG < PG < < BG | decreases the oxidative stability slightly |  | 6.09 ± 0.12 µM | 5.57 ± 0.01 µM | PW^I, partition constant water-interfacial ([1]; [HPCD] = 0): 382 ± 18; PW^I (app), partition constant water-interfacial ([1]; [HPCD] = 0.013 M): 315 ± 14; PW^O, partition constant [6]: 0.85 ± 0.01
